The record followed here is US5955440A, “Macrolide LHRH antagonists” (Abbott Laboratories, priority 1998, dated 1999).

The target of the experiment is T1, LHRH rat pituitary receptor (Rattus norvegicus, UniProt P30969).
T1 construct: from tissue; host or cells: rat pituitary
T1 sequence (P30969 1-327): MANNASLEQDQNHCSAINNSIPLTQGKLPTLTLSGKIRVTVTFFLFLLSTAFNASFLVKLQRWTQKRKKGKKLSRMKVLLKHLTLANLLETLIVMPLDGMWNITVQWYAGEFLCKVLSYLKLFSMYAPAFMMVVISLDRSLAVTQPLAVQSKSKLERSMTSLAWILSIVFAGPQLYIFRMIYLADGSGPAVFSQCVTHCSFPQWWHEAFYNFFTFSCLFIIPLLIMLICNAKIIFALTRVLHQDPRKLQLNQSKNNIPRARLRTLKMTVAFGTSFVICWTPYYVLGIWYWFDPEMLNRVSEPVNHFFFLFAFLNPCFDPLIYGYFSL
In words: LHRH rat pituitary receptor binding (pKI). The conditions noted are these: negative logarithm of the equilibrium dissociation constants, Table 1, read-out: receptor binding affinity (pKI) (converted). Here is the method:
Representative compounds of the present invention were evaluated in in vitro tests for LHRH rat pituitary receptor binding (pKI) and for LH inhibition from rat pituitary cells for antagonist potency (pA2). The tests employed the methods detailed in F. Haviv, et al. J. Med. Chem., 32: 2340-2344 (1989). The receptor binding affinity (pKI) is the negative logarithm of the equilibrium dissociation constants.

On to `CC[C@H]1OC(=O)[C@H](C)[C@@H](O[C@H]2C[C@@](C)(OC)[C@@H](O)[C@H](C)O2)[C@H](C)[C@@H](O[C@@H]2O[C@H](C)C[C@H](N(C)C3CCCC3)[C@H]2O)[C@](C)(OC)C[C@@H](C)C(=O)[C@H](C)[C@H]2N(CCc3ccc(OC)cc3)C(=O)O[C@]12C` [Example 40, 3'-N-Desmethyl-3'-N-cyclopentyl-11-deoxy-11-[carboxy-(4-methoxyphenethylamino)]-6-O-methyl-erythromycin A 11,12-(cyclic carbamate)], for which the Ki is 5.75 nM. Consider `CCCN(C)[C@H]1C[C@@H](C)O[C@@H](O[C@@H]2[C@@H](C)[C@H](O[C@H]3C[C@@](C)(OC)[C@@H](O)[C@H](C)O3)[C@@H](C)C(=O)O[C@H](CC)[C@@]3(C)OC(=O)N(CCc4ccc(C)c(C)c4)[C@@H]3[C@@H](C)C(=O)[C@H](C)C[C@@]2(C)OC)[C@@H]1O` [Example 41, 3'-N-Desmethyl-3'-N-propyl-11-deoxy-11-[carboxy-(3,4-dimethylphenethylamino)]-6-O-methyl-erythromycin A 11,12-(cyclic carbamate)], for which the Ki is 8.51 nM. As for `CC[C@H]1OC(=O)[C@H](C)[C@@H](O[C@H]2C[C@@](C)(OC)[C@@H](O)[C@H](C)O2)[C@H](C)[C@@H](O[C@@H]2O[C@H](C)C[C@H](N(C)C3CCCC3)[C@H]2O)[C@](C)(OC)C[C@@H](C)C(=O)[C@H](C)[C@H]2N(CCc3ccc(OC)c(Br)c3)C(=O)O[C@]12C` [Example 42, 3'-N-Desmethyl-3'-N-cyclopentyl-11-deoxy-11-[carboxy-(3-bromo-4-methoxyphenethylamino)]-6-O-methyl-erythromycin A 11,12-(cyclic carbamate)], the Ki was 7.24 nM. As to `CCCN(C)[C@H]1C[C@@H](C)O[C@@H](O[C@@H]2[C@@H](C)[C@H](O[C@H]3C[C@@](C)(OC)[C@@H](O)[C@H](C)O3)[C@@H](C)C(=O)O[C@H](CC)[C@@]3(C)OC(=O)N(CCc4ccc(OC)c(Br)c4)[C@@H]3[C@@H](C)C(=O)[C@H](C)C[C@@]2(C)OC)[C@@H]1O` [Example 43, 3'-N-Desmethyl-3'-N-propyl-11-deoxy-11-[carboxy-(3-bromo-4-methoxyphenethylamino)]-6-O-methyl-erythromycin A 11,12-(cyclic carbamate)], the Ki was 3.55 nM.

For `CCCN(C)[C@H]1C[C@@H](C)O[C@@H](O[C@@H]2[C@@H](C)[C@H](O[C@H]3C[C@@](C)(OC)[C@@H](O)[C@H](C)O3)[C@@H](C)C(=O)O[C@H](CC)[C@@]3(C)OC(=O)N(CCc4ccc(F)c(Cl)c4)[C@@H]3[C@@H](C)C(=O)[C@H](C)C[C@@]2(C)OC)[C@@H]1O` [Example 44, 3'-N-Desmethyl-3'-N-propyl-11-deoxy-11-[carboxy-(3-chloro-4-fluorophenethylamino)]-6-O-methyl-erythromycin A 11,12-(cyclic carbamate)], the Ki was 1.45 nM. As to `CC[C@H]1OC(=O)[C@H](C)[C@@H](O[C@H]2C[C@@](C)(OC)[C@@H](O)[C@H](C)O2)[C@H](C)[C@@H](O[C@@H]2O[C@H](C)C[C@H](N(C)Cc3ccco3)[C@H]2O)[C@](C)(OC)C[C@@H](C)C(=O)[C@H](C)[C@H]2N(CCc3ccc(F)c(Cl)c3)C(=O)O[C@]12C` [Example 45, 3'-N-Desmethyl-3'-N-(2-furyl)methyl-11-deoxy-11-[carboxy-(3-chloro-4-fluorophenethylamino)]-6-O-methyl-erythromycin A 11,12-(cyclic carbamate)], the Ki was 3.55 nM. Consider `CC[C@H]1OC(=O)[C@H](C)[C@@H](O[C@H]2C[C@@](C)(OC)[C@@H](O)[C@H](C)O2)[C@H](C)[C@@H](O[C@@H]2O[C@H](C)C[C@H](N(C)Cc3ccc(CO)o3)[C@H]2O)[C@](C)(OC)C[C@@H](C)C(=O)[C@H](C)[C@H]2N(CCc3ccc(F)c(Cl)c3)C(=O)O[C@]12C` [Example 46, 3'-N-Desmethyl-3'-N-[2-(5-hydroxymethyl)furyl]methyl-11-deoxy-11-[carboxy-(3-chloro-4-fluorophenethylamino)]-6-O-methyl-erythromycin A 11,12-(cyclic carbamate)], for which the Ki is 1.15 nM. Consider `CC[C@H]1OC(=O)[C@H](C)[C@@H](O[C@H]2C[C@@](C)(OC)[C@@H](O)[C@H](C)O2)[C@H](C)[C@@H](O[C@@H]2O[C@H](C)C[C@H](N(C)Cc3ccccn3)[C@H]2O)[C@](C)(OC)C[C@@H](C)C(=O)[C@H](C)[C@H]2N(CCc3ccc(F)c(Cl)c3)C(=O)O[C@]12C` [Example 47, 3'-N-Desmethyl-3'-N-(2-pyridyl)methyl-11-deoxy-11-[carboxy-(3-chloro-4-fluorophenethylamino)]-6-O-methyl-erythromycin A 11,12-(cyclic carbamate)], for which the Ki was 2.51 nM.

With `CC[C@H]1OC(=O)[C@H](C)[C@@H](O[C@H]2C[C@@](C)(OC)[C@@H](O)[C@H](C)O2)[C@H](C)[C@@H](O[C@@H]2O[C@H](C)C[C@H](N(C)Cc3cccc(C)n3)[C@H]2O)[C@](C)(OC)C[C@@H](C)C(=O)[C@H](C)[C@H]2N(CCc3ccc(F)c(Cl)c3)C(=O)O[C@]12C` [Example 48, 3'-N-Desmethyl-3'-N-[2-(6-methyl)pyridyl]methyl-11-deoxy-11-[carboxy-(3-chloro-4-fluorophenethylamino)]-6-O-methyl-erythromycin A 11,12-(cyclic carbamate)], the Ki was 1.91 nM. As for `CC[C@H]1OC(=O)[C@H](C)[C@@H](O[C@H]2C[C@@](C)(OC)[C@@H](O)[C@H](C)O2)[C@H](C)[C@@H](O[C@@H]2O[C@H](C)C[C@H](N(C)Cc3ccc(OCCO)cc3)[C@H]2O)[C@](C)(OC)C[C@@H](C)C(=O)[C@H](C)[C@H]2N(CCc3ccc(F)c(Cl)c3)C(=O)O[C@]12C` [Example 49, 3'-N-Desmethyl-3'-N-(4-hydroxyethoxybenzyl)-11-deoxy-11-[carboxy-(3-chloro-4-fluorophenethylamino)]-6-O-methyl-erythromycin A 11,12-(cyclic carbamate)], the figure is 3.16 nM; as for `CC[C@H]1OC(=O)[C@H](C)[C@@H](O[C@H]2C[C@@](C)(OC)[C@@H](O)[C@H](C)O2)[C@H](C)[C@@H](O[C@@H]2O[C@H](C)C[C@H](N(C)CCC(C)SC)[C@H]2O)[C@](C)(OC)C[C@@H](C)C(=O)[C@H](C)[C@H]2N(CCc3ccc(F)c(Cl)c3)C(=O)O[C@]12C` (stereo partly shown) [Example 50, 3'-N-Desmethyl-3'-N-(3-methylthio)butyl-11-deoxy-11-[carboxy-(3-chloro-4-fluorophenethylamino)]-6-O-methyl-erythromycin A 11,12-(cyclic carbamate)], 0.977 nM; as for `CC[C@H]1OC(=O)[C@H](C)[C@@H](O[C@H]2C[C@@](C)(OC)[C@@H](O)[C@H](C)O2)[C@H](C)[C@@H](O[C@@H]2O[C@H](C)C[C@H](N(C)CCCC(F)(F)F)[C@H]2O)[C@](C)(OC)C[C@@H](C)C(=O)[C@H](C)[C@H]2N(CCc3ccc(F)c(Cl)c3)C(=O)O[C@]12C` [Example 51, 3'-N-Desmethyl-3'-N-(4,4,4-trifluorobutyl)-11-deoxy-11-[carboxy-(3-chloro-4-fluorophenethylamino)]-6-O-methyl-erythromycin A 11,12-(cyclic carbamate)], 6.31 nM. For the compound `CC[C@H]1OC(=O)[C@H](C)[C@@H](O[C@H]2C[C@@](C)(OC)[C@@H](O)[C@H](C)O2)[C@H](C)[C@@H](O[C@@H]2O[C@H](C)C[C@H](N(C)C3CCC3)[C@H]2O)[C@](C)(OC)C[C@@H](C)C(=O)[C@H](C)[C@H]2N(CCc3ccc(Cl)c(F)c3)C(=O)O[C@]12C` [Example 52, 3'-N-Desmethyl-3'-N-cyclobutyl-11-deoxy-11-[carboxy-(4-chloro-3-fluorophenethylamino)]-6-O-methyl-erythromycin A 11,12-(cyclic carbamate)], the Ki is 7.94 nM. Take `CC[C@H]1OC(=O)[C@H](C)[C@@H](O[C@H]2C[C@@](C)(OC)[C@@H](O)[C@H](C)O2)[C@H](C)[C@@H](O[C@@H]2O[C@H](C)C[C@H](N(C)C(C)C)[C@H]2O)[C@](C)(OC)C[C@@H](C)C(=O)[C@H](C)[C@H]2N(CCc3ccc(F)c(F)c3)C(=O)O[C@]12C` [Example 53, 3'-N-Desmethyl-3'-N-isopropyl-11-deoxy-11-[carboxy-(3,4-difluorophenethylamino)]-6-O-methyl-erythromycin A 11,12-(cyclic carbamate)]: the Ki was 3.02 nM. In the case of `CCCN(C)[C@H]1C[C@@H](C)O[C@@H](O[C@@H]2[C@@H](C)[C@H](O[C@H]3C[C@@](C)(OC)[C@@H](O)[C@H](C)O3)[C@@H](C)C(=O)O[C@H](CC)[C@@]3(C)OC(=O)N(CCc4ccc5c(c4)OCCO5)[C@@H]3[C@@H](C)C(=O)[C@H](C)C[C@@]2(C)OC)[C@@H]1O` [Example 54, 3'-N-Desmethyl-3'-N-propyl-11-deoxy-11-[carboxy-[3 4-(1,4-dioxano)phenethylamino)]}-6-O-methyl-erythromycin A 11,12-(cyclic carbamate)], the Ki was 4.07 nM. With `CC[C@H]1OC(=O)[C@H](C)[C@@H](O[C@H]2C[C@@](C)(OC)[C@@H](O)[C@H](C)O2)[C@H](C)[C@@H](O[C@@H]2O[C@H](C)C[C@H](N(C)CC3CC3)[C@H]2O)[C@](C)(OC)C[C@@H](C)C(=O)[C@H](C)[C@H]2N(CCc3ccc(Cl)c(Cl)c3)C(=O)O[C@]12C` [Example 55, 3'-N-Desmethyl-3'-N-cyclopropylmethyl-11-deoxy-11-[carboxy-(3,4-dichlorophenethylamino)]-6-O-methyl-erythromycin A 11,12-(cyclic carbamate)], the Ki is 7.24 nM.
